Tests used:
Details in all cases: synthetic library passage 3, intravenous, relative to wild-type AAV9
[1] = test system: brain, spinal cord, and DRG of the NHPs; test: NGS fold enrichment of synthetic library (passage 3) in NHPs, first cross-species screen; type: in vivo, cynomolgus macaques (Macaca fascicularis)
Method in brief: (§1)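 Passage-3 synthetic capsid library given intravenously […] to NHPs (2-4 years) and BALB/c or C57Bl/6 mice (n=3, 6-8 weeks). After e.g. 28 days, tissue RNA was RT-PCR amplified and NGS-sequenced; values are fold enrichment of each variant relative to wild-type AAV9.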

brain [2] = test: NGS fold enrichment of synthetic library (passage 3) in C57Bl/6 mice, first cross-species screen; type: in vivo
Method in brief: as §1

brain [3] = test: NGS fold enrichment of synthetic library (passage 3) in BALB/c mice, first cross-species screen; type: in vivo
Method in brief: as §1

[4] = RNA from spinal cord of NHPs, NGS
[5] = RNA from brain of C57Bl/6 mice, NGS
[6] = RNA from brain of BALB/c mice, NGS

Sequence | Fold enrichment over AAV9 in the brain of NHPs ([1]; RNA from brain of NHPs, NGS) [fold] | Fold enrichment over AAV9 in the spinal cord of NHPs [1, 4] [fold] | Fold enrichment over AAV9 in the brain of Mice (C57Bl/6) (brain [2]; [5]) [fold] | Fold enrichment over AAV9 in the brain of Mice (BALB/c) (brain [3]; [6]) [fold] | Fold enrichment over AAV9 in the brain of NHPs ([1]; RNA NGS, brain of NHPs) [fold] | Fold enrichment over AAV9 in the spinal cord of NHPs ([1]; RNA NGS, spinal cord of NHPs) [fold] | Fold enrichment over AAV9 in the brain of Mice (C57Bl/6) (brain [2]; RNA NGS, brain of C57Bl/6 mice) [fold] | Fold enrichment over AAV9 in the brain of Mice (BALB/c) (brain [3]; RNA NGS, brain of BALB/c mice) [fold]
GSGQNQQNLGKLNT | 1.141 | 0.000 | 0.919 | 0.687 | – | – | – | –
GSGQNQQPHLKSLT | – | – | – | – | 1.457 | 5.016 | 1.096 | 0.740
GSGQNQQPLDTSRT | – | – | – | – | 1.015 | 0.775 | 0.491 | 0.376
GSGQNQQPNSGSMT | – | – | – | – | 1.064 | 0.925 | 0.588 | 0.339
GSGQNQQPPLATRT | 1.386 | 2.295 | 0.593 | 0.287 | – | – | – | –
GSGQNQQPSAFSKT | 1.220 | 4.906 | 1.309 | 0.754 | – | – | – | –
GSGQNQQPSLRQST | 1.356 | 2.905 | 1.315 | 0.554 | – | – | – | –
GSGQNQQPSSRVTT | – | – | – | – | 1.012 | 2.179 | 0.784 | 0.504
GSGQNQQQIGGNST | – | – | – | – | 1.741 | 6.169 | 0.877 | 0.576
GSGQNQQQRDGTLT | 1.152 | 0.387 | 0.760 | 0.730 | – | – | – | –
GSGQNQQRNSDSVT | – | – | – | – | 1.829 | 0.000 | 1.238 | 0.842
GSGQNQQSALRTQT | – | – | – | – | 1.568 | 1.913 | 1.581 | 1.421
GSGQNQQSANKILT | 1.331 | 3.789 | 0.894 | 1.236 | – | – | – | –
GSGQNQQSAREGLT | – | – | – | – | 3.111 | 5.632 | 1.221 | 1.104
GSGQNQQSGRGDLT | – | – | – | – | 2.019 | 6.919 | 0.524 | 1.152
GSGQNQQSGTFLST | – | – | – | – | 1.090 | 5.673 | 1.021 | 0.742
GSGQNQQSHGRIGT | 1.173 | 5.117 | 0.607 | 0.455 | – | – | – | –
GSGQNQQSHLRTNT | 1.251 | 4.583 | 1.022 | 0.718 | – | – | – | –
GSGQNQQSKQQVLT | – | – | – | – | 1.019 | 1.494 | 1.428 | 1.256
GSGQNQQSLSGSFT | – | – | – | – | 1.105 | 0.735 | 0.745 | 0.883

Sequence | Fold enrichment over AAV9 in the brain of NHPs ([1]; RNA from brain of NHPs, NGS) [fold] | Fold enrichment over AAV9 in the spinal cord of NHPs [1, 4] [fold] | Fold enrichment over AAV9 in the brain of Mice (C57Bl/6) (brain [2]; [5]) [fold] | Fold enrichment over AAV9 in the brain of Mice (BALB/c) (brain [3]; [6]) [fold] | Fold enrichment over AAV9 in the brain of NHPs ([1]; RNA NGS, brain of NHPs) [fold] | Fold enrichment over AAV9 in the spinal cord of NHPs ([1]; RNA NGS, spinal cord of NHPs) [fold] | Fold enrichment over AAV9 in the brain of Mice (C57Bl/6) (brain [2]; RNA NGS, brain of C57Bl/6 mice) [fold] | Fold enrichment over AAV9 in the brain of Mice (BALB/c) (brain [3]; RNA NGS, brain of BALB/c mice) [fold]
GSGQNQQSMADHTT | – | – | – | – | 1.494 | 1.728 | 0.428 | 0.215
GSGQNQQSMGTFTT | – | – | – | – | 1.625 | 0.000 | 1.792 | 0.399
GSGQNQQSNWITKT | – | – | – | – | 2.711 | 0.000 | 0.540 | 0.634
GSGQNQQSQYMPRT | 1.234 | 0.401 | 0.549 | 0.520 | – | – | – | –
GSGQNQQSSFNVQT | – | – | – | – | 0.998 | 0.000 | 1.307 | 0.675
GSGQNQQSTGTSRT | – | – | – | – | 1.103 | 4.054 | 1.209 | 0.935
GSGQNQQTAHAFNI | 1.132 | 3.404 | 0.699 | 0.729 | – | – | – | –
GSGQNQQTAIYRNI | – | – | – | – | 1.854 | 2.207 | 0.818 | 1.437
GSGQNQQTALEKSL | – | – | – | – | 1.092 | 0.000 | 0.625 | 0.702
GSGQNQQTALGVKC | – | – | – | – | 1.835 | 1.343 | 1.378 | 1.014
GSGQNQQTALYNNT | 1.307 | 0.862 | 0.660 | 0.726 | – | – | – | –
GSGQNQQTAMRSTT | – | – | – | – | 1.581 | 2.588 | 0.656 | 0.665
GSGQNQQTGLRQQT | – | – | – | – | 1.533 | 2.120 | 1.217 | 1.103
GSGQNQQTGMSSVK | – | – | – | – | 2.109 | 4.544 | 1.451 | 0.679
GSGQNQQTGNPKHT | – | – | – | – | 1.504 | 5.973 | 1.391 | 1.139
GSGQNQQTGQATHN | – | – | – | – | 0.996 | 2.199 | 0.877 | 0.527
GSGQNQQTGQHMRV | 1.286 | 4.161 | 1.839 | 1.635 | – | – | – | –
GSGQNQQTGSSSRV | 1.176 | 0.580 | 0.995 | 1.128 | – | – | – | –
GSGQNQQTHGGLRD | – | – | – | – | 1.519 | 6.487 | 1.913 | 1.298
GSGQNQQTHPSPCT | – | – | – | – | 1.510 | 1.003 | 1.120 | 0.546

Source: patent publication US20260250318A1, “COMPOSITIONS AND METHODS FOR CROSSING THE BLOOD BRAIN BARRIER” (VOYAGER THERAPEUTICS, INC., priority 2022, published 2026)
